This note sets out measurements from US20240016777A1, “COMPOUNDS AND METHODS FOR TREATING VIRAL INFECTIONS” (priority 2020, published 2024).

As a reminder, the IC50 is the concentration at which inhibition is half-maximal.

One assay has as its target SARS-CoV-2 M^pro (Severe acute respiratory syndrome coronavirus 2 (2019-nCoV) (SARS-CoV-2), UniProt P0DTD1). As to the kind of experiment: biochemical.
Settings: not given
On to `O=C1CC(c2ccccc2)Oc2cc(O)cc(O)c21` (centres unmarked) [Pinocembrin], for which the “Mpro inhibitory activity (comparison in words)” value was “relatively poor inhibition”.

The assay is the same for the next values; noted with them: compound at 17 μM, duplicates, 20 min pre-incubation.
On to `C=C(C)[C@H](CC=C(C)C)Cc1c(O)cc(O)c2c1O[C@H](c1ccc(O)cc1OC)CC2=O` [Isokurarinone], for which the “Activity (% enzyme activity by fluorescence relative to initial enzyme activity)” value is “++ (enzyme activity as indicated by fluorescence measurements ≥10% and <80%)”. The same measure, in the same setting: the entry for `O=c1cc(-c2ccc(O)cc2)oc2c([C@@H]3O[C@H](CO)[C@@H](O)[C@H](O)[C@H]3O)c(O)c([C@@H]3OC[C@H](O)[C@H](O)[C@H]3O)c(O)c12` [Isoschaftoside] is “++ (enzyme activity as indicated by fluorescence measurements ≥10% and <80%)”; for `C=C(C)[C@H](CC=C(C)C)Cc1c(O)cc(O)c2c1O[C@H](c1ccc(O)cc1OC)CC2=O` [Leachianone A] it is “+ (≥80% enzyme activity as indicated by fluorescence measurements)”.

Staying with this assay, now noted: compound at 17 μM, duplicates, 20 min pre-incubation; read-out: Activity (% enzyme activity by fluorescence relative to initial enzyme activity).
For the molecule `COc1cc(O)c(CC=C(C)C)c2c1C(=O)C[C@@H](c1ccc(O)cc1)O2` [Isoxanthohumol], the remaining activity at 17 µM was > 80%. On to `O=c1c(O)c(-c2ccc(O[C@@H]3O[C@H](CO)[C@@H](O)[C@H](O)[C@H]3O)cc2)oc2cc(O)cc(O)c12` [Kaempferol-4′-O-beta-D-glucopyranoside], for which the remaining activity at 17 µM lay in the range of 10 to 80%.

In the case of `O=c1c(O)c(-c2ccc(O)cc2)oc2cc(O)cc(O)c12` [Kaempferol], the remaining activity at 17 µM is > 80%. For the molecule `C=C(C)[C@H](CC=C(C)C)Cc1c(O)cc(O)c2c(=O)c(O)c(-c3ccc(O)cc3O)oc12` [Kushenol C], the remaining activity at 17 µM lay within 10 to 80%. `CC(C)=CCc1c(O)ccc(C(=O)[C@@H]2C(c3c(O)cc(O)c4c(=O)c(CC=C(C)C)c(-c5ccc(O)cc5O)oc34)C=C(C)CC2c2ccc(O)cc2O)c1O` (some centres unmarked) [Kuwanon H]: the remaining activity at 17 µM was in the range of 10 to 80%. For `CC(C)=CCc1c(O)cc(O)c2c(=O)cc(-c3ccc(O)cc3)oc12` [Licoflavone C], the remaining activity at 17 µM is > 80%. On to `CC(C)=CCc1c(O)ccc(-c2coc3cc(O)cc(O)c3c2=O)c1O` [Licoisoflavone A], for which the remaining activity at 17 µM was > 80%. For the molecule `COc1cc(O)c2c(c1CC=C(C)C)O[C@H](c1cc(CC=C(C)C)c(O)cc1O)CC2=O` [Maackiaflavanone], the remaining activity at 17 µM is < 10%. For the molecule `CC(C)=CCc1c(-c2ccc(O)cc2O)oc2c3c(cc(O)c2c1=O)OC(C)(C)C=C3` [Morusin], the remaining activity at 17 µM fell in the range of 10 to 80%. For `CC(C)=CCCC1=C[C@@H](c2c(O)cc3oc(-c4ccc(O)cc4O)cc(=O)c3c2O)[C@H](C(=O)c2ccc(O)cc2O)[C@@H](c2ccc(O)cc2O)C1` [Multicaulisin], the remaining activity at 17 µM is < 10%. For `CC(C)=CCc1c2c(c3occ(-c4ccc(O)cc4)c(=O)c3c1O)C=CC(C)(C)O2` [Osajin], the remaining activity at 17 µM is > 80%.

Still in this assay, the particulars now being: compounds evaluated at 0.015-300 μM; read-out: IC50.
Take `O=c1cc(-c2ccc(O)cc2)oc2c([C@@H]3O[C@H](CO)[C@@H](O)[C@H](O)[C@H]3O)c(O)c([C@@H]3OC[C@H](O)[C@H](O)[C@H]3O)c(O)c12` [Isoschaftoside]: the half-maximal inhibitory concentration (IC50) stood at 20 µM. As to `O=c1c(O)c(-c2ccc(O[C@@H]3O[C@H](CO)[C@@H](O)[C@H](O)[C@H]3O)cc2)oc2cc(O)cc(O)c12` [Kaempferol-4′-O-beta-D-glucopyranoside], the 50% inhibitory concentration (IC50) was 12 µM. Turning to `COc1cc(O)c2c(c1CC=C(C)C)O[C@H](c1cc(CC=C(C)C)c(O)cc1O)CC2=O` [Maackiaflavanone], the half-maximal inhibitory concentration (IC50) was 3 µM.

Consider `CC(C)=CCCC1=C[C@@H](c2c(O)cc3oc(-c4ccc(O)cc4O)cc(=O)c3c2O)[C@H](C(=O)c2ccc(O)cc2O)[C@@H](c2ccc(O)cc2O)C1` [Multicaulisin], for which the IC50 amounted to 17 µM.

Still in this assay, the particulars now being: read-out: Activity (% enzyme activity by fluorescence relative to initial enzyme activity), compound at 17 μM, duplicates, 20 min pre-incubation.
As for `CC(C)=CCc1cc(-c2oc3cc(O)cc(O)c3c(=O)c2O)ccc1O` [Isolicoflavonol], the remaining activity at 17 µM was 10 to 80%. For `CC(C)=CCc1cc(-c2coc3cc(O)cc(O)c3c2=O)ccc1O` [Isowighteone], the remaining activity at 17 µM was > 80%.

As for `CC(C)=CCc1cc([C@@H]2CCc3ccc(O)cc3O2)c(CC=C(C)C)c(O)c1O` [Kazinol A], the remaining activity at 17 µM was > 80%. With `CC(C)=CCc1c([C@@H]2CCc3ccc(O)cc3O2)cc2c(c1O)OC(C)(C)C=C2` [Kazinol B], the remaining activity at 17 µM was > 80%. In the case of `CC(C)=CCc1c([C@H]2CCc3ccc(O)cc3O2)ccc(O)c1O` [Kazinol U], the remaining activity at 17 µM was > 80%.

For `COc1ccc(-c2oc3c(CC=C(C)C)c(O)cc(O)c3c(=O)c2O[C@@H]2O[C@@H](C)[C@H](OC(C)=O)[C@@H](O[C@@H]3O[C@H](COC(C)=O)[C@@H](O)[C@H](O)[C@H]3O)[C@H]2O)cc1` [Korepimedoside A], the remaining activity at 17 µM lay in the range of 10 to 80%.

With `C=C(C)[C@H](CCC(C)(C)O)Cc1c(O)cc(OC)c2c1O[C@H](c1ccc(O)cc1O)CC2=O` [Kurarinol], the remaining activity at 17 µM was > 80%.

Turning to `C=C(C)[C@H](CC=C(C)C)Cc1c(O)cc(OC)c2c1O[C@H](c1ccc(O)cc1O)CC2=O` [Kurarinone], the remaining activity at 17 µM was > 80%. Regarding `C=C(C)[C@H](CC=C(C)C)Cc1c(O)cc(O)c2c1O[C@H](c1ccccc1O)CC2=O` [Kushenol A], the remaining activity at 17 µM is > 80%. The same measure, in the same setting: next, `C=C(C)[C@H](CC=C(C)C)Cc1c(O)c(CC=C(C)C)c(O)c2c1O[C@H](c1ccc(O)cc1O)CC2=O` [Kushenol B]: > 80%. Same read-out and setting: the figure for `CC(C)=CCc1c(O)c(CC=C(C)C)c2c(c1O)C(=O)C[C@@H](c1ccc(O)cc1O)O2` [Kushenol E] is 10 to 80%; for `C=C(C)[C@H](CC=C(C)C)Cc1c(O)cc(O)c2c1O[C@H](c1ccc(O)cc1O)CC2=O` [Kushenol F] it is > 80%.

`C=C(C)[C@H](CC=C(C)C)Cc1c(O)cc(OC)c2c1O[C@H](c1ccc(O)cc1O)[C@@H](O)C2=O` [Kushenol I]: the remaining activity at 17 µM is > 80%. With `C=C(C)[C@H](CCC(C)(C)O)Cc1c(O)cc(OC)c2c1O[C@H](c1ccc(O)cc1O)[C@H](O)C2=O` [Kushenol K], the remaining activity at 17 µM was > 80%. For the molecule `CC(C)=CCc1c(O)c(CC=C(C)C)c2c(c1O)C(=O)[C@H](O)[C@@H](c1ccc(O)cc1O)O2` [Kushenol L], the remaining activity at 17 µM was > 80%.

As to `C=C(C)[C@H](CC=C(C)C)Cc1c(O)cc(OC)c2c1O[C@H](c1ccc(O)cc1O)[C@H](O)C2=O` [Kushenol N], the remaining activity at 17 µM was > 80%. For `COc1cc([C@@H]2CC(=O)c3c(O)cc(O)c(CC=C(C)C)c3O2)c(O)cc1O` [Kushenol W], the remaining activity at 17 µM is > 80%.

On to `C=C(C)C(CC=C(C)C)Cc1c(O)cc(O)c2c1O[C@H](c1ccc(O)cc1O)[C@@H](O)C2=O` (some centres unmarked) [Kushenol X], for which the remaining activity at 17 µM is > 80%. Same read-out and setting: the figure for `CC(C)=CCCC1(C)C=Cc2c(cc3c(c2O)C(=O)C[C@@H](c2ccc(O)cc2O)O3)O1` (some centres unmarked) [Kuwanol C] is 10 to 80%; for `CC(C)=CCc1c(O)cc(O)c2c1O[C@H](c1ccc(O)cc1O)CC2=O` [Leachianone G] it is > 80%. With `CC(C)=CCc1c(O)cc2oc(-c3ccc(O)cc3)c(O)c(=O)c2c1O` [Licoflavonol], the remaining activity at 17 µM is > 80%. With `COc1c(CC=C(C)C)c(O)cc2c1C[C@H](c1ccc(O)c(CC=C(C)C)c1O)CO2` [Licoricidin], the remaining activity at 17 µM was > 80%. Still for that read-out and setting: the figure for `COc1cc(O)c(-c2coc3cc(O)ccc3c2=O)c(OC)c1CC=C(C)C` [Licoricone] is > 80%.

For `COc1cc2c(c(OC)c1CC=C(C)C)C[C@H](c1ccc(O)c(CC=C(C)C)c1O)CO2` [Licorisoflavan A], the remaining activity at 17 µM is 10 to 80%. Turning to `CC(C)=CCc1cc(-c2coc3cc(O)c(CC=C(C)C)c(O)c3c2=O)ccc1O` [Lupalbigenin], the remaining activity at 17 µM was > 80%. For `CC(C)=CCc1c(O)cc2c(c1O)C(=O)[C@@]1(O)c3ccc(O)cc3O[C@H]1O2` [Lupinol C], the remaining activity at 17 µM was > 80%. As for `CC(C)=CCc1c(O)cc(O)c2c(=O)c(-c3ccc(O)cc3)coc12` [Lupiwighteone], the remaining activity at 17 µM is > 80%. For `CC(C)=CCc1c(O)cc2occ(-c3ccc(O)cc3O)c(=O)c2c1O` [Luteone], the remaining activity at 17 µM was > 80%. On to `CC(C)=CCc1c(-c2ccc(O)cc2O)oc2c(CC=C(C)C)c(O)cc(O)c2c1=O` [Mulberrin], for which the remaining activity at 17 µM was > 80%. Consider `CC(C)=CCc1cc(-c2coc3cc(O)ccc3c2=O)ccc1O` [Neobavaisoflavone], for which the remaining activity at 17 µM was in the range of 10 to 80%. Take `CC(C)=CCc1c(O)ccc2c1O[C@H]1c3ccc(O)cc3OC[C@@H]21` [Phaseollidin]: the remaining activity at 17 µM was > 80%.

Regarding `CC(C)=CCc1c(O[C@@H]2O[C@H](CO)[C@@H](O)[C@H](O)[C@H]2O)cc(O)c2c1O[C@H](c1ccc(O)cc1)[C@@H](O)C2=O` [Phellamurin], the remaining activity at 17 µM is > 80%.

In the case of `COc1ccc(-c2oc3c(CC=C(C)C)c(O)cc(O)c3c(=O)c2O[C@@H]2O[C@@H](C)[C@H](O)[C@@H](O)[C@H]2O[C@@H]2O[C@H](CO)[C@@H](O)[C@H](O)[C@H]2O)cc1` [Sagittatoside A], the remaining activity at 17 µM was > 80%. As for `COc1ccc(-c2oc3c(CC=C(C)C)c(O)cc(O)c3c(=O)c2O[C@@H]2O[C@@H](C)[C@H](O)[C@@H](O)[C@H]2O[C@@H]2OC[C@@H](O)[C@H](O)[C@H]2O)cc1` [Sagittatoside B], the remaining activity at 17 µM was > 80%. On the same count and under the same terms, next, `COc1ccc(-c2oc3c(CC=C(C)C)c(O)cc(O)c3c(=O)c2O[C@@H]2O[C@@H](C)[C@H](O)[C@@H](OC(C)=O)[C@H]2O[C@@H]2O[C@H](CO)[C@@H](O)[C@H](O)[C@H]2O)cc1` [Sagittatoside C]: > 80%; `CC(C)=CCCC1(C)CCc2c(cc(O)c3c2OC(c2ccc(O)cc2O)CC3=O)O1` (centres unmarked) [Sanggenol L]: > 80%. `CC(C)=CCC/C(C)=C/Cc1c(O)c(CC=C(C)C)cc(C2CC(=O)c3c(O)cc(O)cc3O2)c1O` (centres unmarked) [Sanggenol P]: the remaining activity at 17 µM is > 80%. Consider `CC(C)=CCCC1(C)C=Cc2c(ccc([C@@H]3CC(=O)c4c(O)cc(O)cc4O3)c2O)O1` (some centres unmarked) [Sanggenon N], for which the remaining activity at 17 µM is > 80%. With `CC(C)=CC[C@]12Oc3cc(O)c([C@H]4C=C(C)C[C@H](c5ccc(O)cc5O)[C@H]4C(=O)c4cc(O)cc(O)c4)c(O)c3C(=O)[C@@]1(O)Oc1cc(O)ccc12` [Sanggenone C], the remaining activity at 17 µM was < 10%. Same read-out and setting: the figure for `CC(C)=CC[C@]12Oc3cc(O)c([C@@H]4C=C(C)C[C@H](c5ccc(O)cc5O)[C@H]4C(=O)c4cc(O)cc(O)c4)c(O)c3C(=O)[C@@]1(O)Oc1cc(O)ccc12` [Sanggenone D] is < 10%.
